In patent publication US20240270741A1 (Cogent Biosciences, Inc., priority 2023, published 2024):

Molecular target: FGFR2 (Homo sapiens, UniProt P21802)
Assay: FGFR wild type enzyme assay (HTRF KinEASE-TK), FGFR2
Details: Enz FGFR2 (nM), FGFR2 wild type enzyme assay
Experimental: Activity against FGFR wild type and mutant enzymes were determined in biochemical assays using purified intracellular domains of the respective isoforms using HTRF KinEASE-TK assay technology from CisBio, now PerkinElmer. (Catalogue number 62TK0PEC). Briefly test compounds were tested in 11 point 1:3 serial dilutions, typical final concentration ranges from 10,000 nM to 0.17 nM. Test compounds were dissolved in DMSO and added to assay plates using acoustic transfer. Enzyme was pre-incubated with test compound for 30 minutes and the assay was initiated by addition of ATP and TK-peptide substrate. After 60 minutes at room temperature the reaction was quenched with detection reagent and incubated for an additional 60 minutes at room temperature. The plates were read using a multimode reader and the emission ratio of 665 nm to 615 nm was determined. This ratio was converted to percent of control (POC). [1-(high control-sample signal)/(high control-low control)]*100. Wells without compound were used to determine high control values and wells without enzyme were used to determine low control values. The POC values were fit using a four-parameter logistic model and the value where the fit curve was equal to 50 POC was reported as the IC50 using the Signals Vitro Vivo software package (PerkinElmer). Final assay conditions were: 50 mM HEPES pH7.5, 10 mM MgCl2, 1 mM EDTA, 0.01% Brij-35, 2 mM MnCl2, 1 mM DTT, and 0.5 uM TK-peptide.

FGFR2, sequence (P21802 399-821 limits assumed): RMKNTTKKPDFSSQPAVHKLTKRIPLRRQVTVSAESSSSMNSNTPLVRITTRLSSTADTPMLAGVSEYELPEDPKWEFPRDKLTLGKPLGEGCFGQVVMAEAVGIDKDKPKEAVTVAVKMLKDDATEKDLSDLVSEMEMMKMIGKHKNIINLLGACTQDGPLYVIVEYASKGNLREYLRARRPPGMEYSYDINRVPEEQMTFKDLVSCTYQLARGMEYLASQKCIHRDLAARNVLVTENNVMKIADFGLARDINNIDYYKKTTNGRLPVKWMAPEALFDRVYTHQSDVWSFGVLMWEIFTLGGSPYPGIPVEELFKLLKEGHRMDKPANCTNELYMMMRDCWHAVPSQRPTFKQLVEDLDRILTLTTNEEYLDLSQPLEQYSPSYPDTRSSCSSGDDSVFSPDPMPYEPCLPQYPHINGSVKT

Q: Which IC50 does the source give for N#Cc1ccccc1Sc1cc(-c2cn([C@H]3CCNC3)nn2)cn2ncc(C#N)c12 [Example 464, (S)-4-((2-cyanophenyl)thio)-6-(1-(pyrrolidin-3-yl)-1H-1,2,3-triazol-4-yl)pyrazolo[1,5-a]pyridine-3-carbonitrile] here?
A: 5 nM

Q: With N#Cc1cnn2cc(-c3cn([C@H]4CCNC4)nn3)cc(Sc3ncccc3F)c12 [Example 465, (S)-4-((3-fluoropyridin-2-yl)thio)-6-(1-(pyrrolidin-3-yl)-1H-1,2,3-triazol-4-yl)pyrazolo[1,5-a]pyridine-3-carbonitrile] as the molecule, how does the IC50 read?
A: 11 nM

Q: With Cn1cc(-c2cc(Sc3ncccc3F)c3c(C#N)cnn3c2)cn1 [Example 466, 4-((3-fluoropyridin-2-yl)thio)-6-(1-methyl-1H-pyrazol-4-yl)pyrazolo[1,5-a]pyridine-3-carbonitrile] as the molecule, how does the IC50 read?
A: 6 nM

Q: Which IC50 does the source give for CN1CCN(c2ccc(-c3cc(Sc4ncccc4F)c4c(C#N)cnn4c3)cc2)CC1 [Example 467, 4-((3-fluoropyridin-2-yl)thio)-6-(4-(4-methylpiperazin-1-yl)phenyl)pyrazolo[1,5-a]pyridine-3-carbonitrile] here?
A: 0.4 nM

Q: Which IC50 does the source give for Cn1cc(-c2cc(Sc3ccccc3C#N)c3c(C#N)cnn3c2)cn1 [Example 468, 4-((2-cyanophenyl)thio)-6-(1-methyl-1H-pyrazol-4-yl)pyrazolo[1,5-a]pyridine-3-carbonitrile] here?
A: 1 nM

Q: How did the IC50 turn out when CN1CCN(c2ccc(-c3cc(Sc4ccccc4C#N)c4c(C#N)cnn4c3)cc2)CC1 [Example 469, 4-((2-cyanophenyl)thio)-6-(4-(4-methylpiperazin-1-yl)phenyl)pyrazolo[1,5-a]pyridin-3-carbonitrile] was run?
A: 0.2 nM

Q: Which IC50 does the source give for Cc1c(-c2cc(Sc3ccc(F)cc3C#N)c3c(C#N)cnn3c2)cnn1[C@H]1CC[C@](O)(CO)CC1 [Example 470, 4-((2-cyano-4-fluorophenyl)thio)-6-(1-((1s,4s)-4-hydroxy-4-(hydroxymethyl)cyclohex-yl)-5-methyl-1H-pyrazol-4-yl)pyrazolo[1,5-a]pyridine-3-carbonitrile] here?
A: 1 nM

Q: How did the IC50 turn out when CC1(C)C[C@H](n2cc(-c3cc(Sc4ncccc4F)c4c(C#N)cnn4c3)cn2)CN1 [Example 471, (S)-6-(1-(5,5-dimethylpyrrolidin-3-yl)-1H-pyrazol-4-yl)-4-((3-fluoropyridin-2-yl)thio)pyrazolo[1,5-a]pyridine-3-carbonitrile] was run?
A: 1 nM

Q: With CC1(C)C[C@H](n2cc(-c3cc(Sc4ccccc4C#N)c4c(C#N)cnn4c3)cn2)CN1 [Example 472, (S)-4-((2-cyanophenyl)thio)-6-(1-(5,5-dimethylpyrrolidin-3-yl)-1H-pyrazol-4-yl)pyrazolo[1,5-a]pyridine-3-carbonitrile] as the molecule, how does the IC50 read?
A: 0.3 nM

Q: CC1(C)C[C@@H](n2cc(-c3cc(Sc4ncccc4F)c4c(C#N)cnn4c3)cn2)CN1 [Example 473, (R)-6-(1-(5,5-dimethylpyrrolidin-3-yl)-1H-pyrazol-4-yl)-4-((3-fluoropyridin-2-yl)thio)pyrazolo[1,5-a]pyridine-3-carbonitrile] was tested. Which IC50 did it give?
A: 1 nM

Q: With CC1(C)C[C@@H](n2cc(-c3cc(Sc4ccccc4C#N)c4c(C#N)cnn4c3)cn2)CN1 [Example 474, (R)-4-((2-cyanophenyl)thio)-6-(1-(5,5-dimethylpyrrolidin-3-yl)-1H-pyrazol-4-yl)pyrazolo[1,5-a]pyridine-3-carbonitrile] as the molecule, how does the IC50 read?
A: 0.2 nM

Q: For C[C@H](O)C(=O)N1CCC(n2cc(-c3cc(Sc4ccc(F)cc4C#N)c4c(C#N)cnn4c3)cn2)CC1 [Example 475, (S)-4-((2-cyano-4-fluorophenyl)thio)-6-(1-(1-(2-hydroxypropanoyl)piperidin-4-yl)-1H-pyrazol-4-yl)pyrazolo[1,5-a]pyridine-3-carbonitrile], which IC50 is on record?
A: 1 nM

Q: For N#Cc1cnn2cc(-c3cnn([C@H]4CCN(C5CC(O)C5)C4)c3)cc(Sc3ncccc3F)c12 (stereo partly drawn) [Example 476, (S)-4-((3-fluoropyridin-2-yl)thio)-6-(1-(1-(3-hydroxycyclobutyl)pyrroli-din-3-yl)-1H-pyrazol-4-yl)pyrazolo[1,5-a]pyridine-3-carbonitrile], which IC50 is on record?
A: 1 nM

Q: How did the IC50 turn out when CC(C)(O)CN1CC[C@H](n2cc(-c3cc(Sc4ncccc4F)c4c(C#N)cnn4c3)cn2)C1 [Example 477, (S)-4-((3-fluoropyridin-2-yl)thio)-6-(1-(1-(2-hydroxy-2-methylpropyl)pyrrolidin-3-yl)-1H-pyrazol-4-y)pyrazolo[1,5-a]pyridine-3-carbonitrile] was run?
A: 1 nM

Q: For COC(=O)N1CCC(n2cc(-c3cc(Sc4ncccc4F)c4c(C#N)cnn4c3)cn2)CC1 [Example 478, methyl 4-(4-(3-cyano-4-((3-fluoropyridin-2-yl)thio)pyrazolo[1,5-a]pyridin-6-yl)-1H-pyrazol-1-yl)piperidine-1-carboxylate], which IC50 is on record?
A: 1 nM

Q: Which IC50 does the source give for COC(=O)N1CCC[C@H](n2cc(-c3cc(Sc4ncccc4F)c4c(C#N)cnn4c3)cn2)C1 [Example 479, methyl (S)-3-(4-(3-cyano-4-((3-fluoropyridin-2-yl)thio)pyrazolo[1,5-a]pyridin-6-yl)-1H-pyrazol-1-yl)piperidine-1-carboxylate] here?
A: 1 nM

Q: With COC(=O)N1CC[C@H](n2cc(-c3cc(Sc4ncccc4F)c4c(C#N)cnn4c3)cn2)C1 [Example 480, methyl (S)-3-(4-(3-cyano-4-((3-fluoropyridin-2-yl)thio)pyrazolo[1,5-a]pyridin-6-yl)-1H-pyrazol-1-yl)pyrrolidine-1-carboxylate] as the molecule, how does the IC50 read?
A: 1 nM

Q: For COC(=O)N1CCC(n2cc(-c3cc(Sc4ccccc4C#N)c4c(C#N)cnn4c3)cn2)CC1 [Example 481, methyl 4-(4-(3-cyano-4-((2-cyanophenyl)thio)pyrazolo [1,5-a]pyridin-6-yl)-1H-pyrazol-1-yl)piperidine-1-carboxylate], which IC50 is on record?
A: 4 nM

Q: For COC(=O)N1CCC[C@H](n2cc(-c3cc(Sc4ccccc4C#N)c4c(C#N)cnn4c3)cn2)C1 [Example 482, methyl (S)-3-(4-(3-cyano-4-((2-cyanophenyl)thio)pyrazolo [1,5-a]pyridin-6-yl)-1H-pyrazol-1-yl)piperidine-1-carboxylate], which IC50 is on record?
A: 1 nM

Q: Which IC50 does the source give for COC(=O)N1CC[C@H](n2cc(-c3cc(Sc4ccccc4C#N)c4c(C#N)cnn4c3)cn2)C1 [Example 483, methyl (S)-3-(4-(3-cyano-4-((2-cyanophenyl)thio)pyrazolo [1,5-a]pyridin-6-yl)-1H-pyrazol-1-yl)pyrrolidine-1-carboxylate] here?
A: 0.5 nM

Q: N#Cc1ccccc1Sc1cc(-c2cnn([C@H]3CCN(C(=O)CO)C3)c2)cn2ncc(C#N)c12 [Example 484, (S)-4-((2-cyanophenyl)thio)-6-(1-(1-(2-hydroxyacetyl)pyrrolidin-3-yl)-1H-pyrazol-4-yl)pyrazolo[1,5-a]pyridine-3-carbonitrile] was tested. Which IC50 did it give?
A: 0.4 nM

Q: N#Cc1ccccc1Sc1cc(-c2cnn([C@H]3CCN(CCO)C3)c2)cn2ncc(C#N)c12 [Example 485, (S)-4-((2-cyanophenyl)thio)-6-(1-(1-(2-hydroxyethyl)pyrrolidin-3-yl)-1H-pyrazol-4-yl)pyrazolo[1,5-a]pyridine-3-carbonitrile] was tested. Which IC50 did it give?
A: 0.4 nM

Q: Cc1c(-c2cc(Sc3ccc(F)cc3C#N)c3c(C#N)cnn3c2)cnn1CC(C)(C)O [Example 486, 4-((2-cyano-4-fluorophenyl)thio)-6-(1-(2-hydroxy-2-methylpropyl)-5-methyl-1H-pyrazol-4-yl)pyrazolo[1,5-a]pyridine-3-carbonitrile] was tested. Which IC50 did it give?
A: 9 nM

Q: Which IC50 does the source give for N#Cc1ccccc1Sc1cc(-c2cnn([C@H]3CCCNC3)c2)cn2ncc(C#N)c12 [Example 487, (S)-4-((2-cyanophenyl)thio)-6-(1-(piperidin-3-yl)-1H-pyrazol-4-yl)pyrazolo[1,5-a]pyridine-3-carbonitrile] here?
A: 0.4 nM

Q: For CC(=O)N[C@H]1CC[C@@H](n2ncc(-c3cc(Sc4nc(C)c(F)cc4F)c4c(C#N)cnn4c3)c2C)CC1 [Example 488, N-((1s,4s)-4-(4-(3-cyano-4-((3,5-difluoro-6-methylpyridin-2-yl)thio)pyrazolo[1,5-a]pyridin-6-yl)-5-methyl-1H-pyrazol-1-yl)cyclohexyl)acetamide], which IC50 is on record?
A: 1 nM

Q: How did the IC50 turn out when CC(C)(C)n1cc(-c2cc(Sc3ncccc3F)c3c(C#N)cnn3c2)cn1 [Example 489, 6-(1-(tert-butyl)-1H-pyrazol-4-yl)-4-((3-fluoropyridin-2-y)thio)pyrazolo[1,5-a]pyridine-3-carbonitrile] was run?
A: 3 nM

Q: Which IC50 does the source give for CC(C)(O)Cn1cc(-c2cc(Sc3ncccc3F)c3c(C#N)cnn3c2)cn1 [Example 490, 4-((3-fluoropyridin-2-yl)thio)-6-(1-(2-hydroxy-2-methylpropyl)-1H-pyrazol-4-yl)pyrazolo[1,5-a]pyridine-3-carbonitrile] here?
A: 2 nM

Q: N#Cc1cnn2cc(-c3ccc(N4CCOCC4)nc3)cc(Sc3ncccc3F)c12 [Example 491, 4-((3-fluoropyridin-2-yl)thio)-6-(6-morpholinopyridin-3-yl)pyrazolo[1,5-a]pyridine-3-carbonitrile] was tested. Which IC50 did it give?
A: 1 nM

Q: With N#Cc1ccccc1Sc1cc(-c2cnn(C[C@@H](O)CO)c2)cn2ncc(C#N)c12 [Example 492, (R)-4-((2-cyanophenyl)thio)-6-(1-(2,3-dihydroxypropyl)-1H-pyrazol-4-yl)pyrazolo[1,5-a]pyridine-3-carbonitrile] as the molecule, how does the IC50 read?
A: 1 nM

Q: For CC(C)(C)n1cc(-c2cc(Sc3ccccc3C#N)c3c(C#N)cnn3c2)cn1 [Example 493, 6-(1-(tert-butyl)-1H-pyrazol-4-yl)-4-((2-cyanophenyl)thio)pyrazolo [1,5-a]pyridine-3-carbonitrile], which IC50 is on record?
A: 1 nM

Q: CC(C)(O)Cn1cc(-c2cc(Sc3ccccc3C#N)c3c(C#N)cnn3c2)cn1 [Example 494, 4-((2-cyanophenyl)thio)-6-(1-(2-hydroxy-2-methylpropyl)-1H-pyrazol-4-yl)pyrazolo[1,5-a]pyridine-3-carbonitrile] was tested. Which IC50 did it give?
A: 1 nM

Q: Which IC50 does the source give for N#Cc1ccccc1Sc1cc(-c2ccc(N3CCOCC3)nc2)cn2ncc(C#N)c12 [Example 495, 4-((2-cyanophenyl)thio)-6-(6-morpholinopyridin-3-yl)pyrazolo[1,5-a]pyridine-3-carbonitrile] here?
A: 1 nM

Q: For Cc1c(-c2cc(Sc3ccc(F)cc3C#N)c3c(C#N)cnn3c2)cnn1[C@H]1CCC[C@H](O)C1 [Example 496, 4-((2-cyano-4-fluorophenyl)thio)-6-(1-((1S,3S)-3-hydroxycyclohexyl)-5-methyl-1H-pyrazol-4-yl)pyrazolo[1,5-a]pyridine-3-carbonitrile], which IC50 is on record?
A: 3 nM
